Measured values published in patent US20260007673A1, “ROCK2 INHIBITORS FOR THE TREATMENT OF VIRAL INFECTIONS” (GRAVITON BIOSCIENCE BV, priority 2022, published 2026).

Tests used:
[1] = system: SARS-CoV-2 Omicron variant; assay type: in vivo, mice; settings: 100 and 300 mg/kg daily oral gavage, 7, 14, 21 days (FIG. 15B)
SARS-CoV-2 Delta variant = assay type: in vivo, mice; settings: 100 and 300 mg/kg daily oral gavage

With Cn1c(C(=O)N2CC(F)(F)C2)cc2ccc(-c3nccc(Nc4ccc(-c5cn[nH]c5)cc4)n3)cc21 [Compound 2, (6-(4-((4-(1H-pyrazol-4-yl)phenyl)amino)pyrimidin-2-yl)-1-methyl-1H-indol-2-yl)(3,3-difluoroazetidin-1-yl)methanone] the “viral load in the lung” value [1] was “effect was observed” and the “viral load in the lung” value (SARS-CoV-2 Delta variant) was “effect was observed”.
